Activity calls are given as the source filed them. The calls are words filed in the database; no cut-off is given here.

Experiment [1] has as its target Epidermal growth factor receptor (Homo sapiens, UniProt P00533, EX19DEL).
Experiment [2] addresses Epidermal growth factor receptor (Homo sapiens, UniProt P00533, L858R).
Experiment [3] addresses Epidermal growth factor receptor (Homo sapiens, UniProt P00533).
For experiment [4], the system named is BaF3. Briefly: cells. Particulars: Mus musculus, BaF3, 72 h.
The subject of experiment [5] is BaF3. Briefly: cells. The experiment is classed as functional, cell-based. Particulars: Mus musculus, BaF3, 72 h.
Experiment [6] concerns BaF3. As to the kind of experiment: cells. Type of experiment: functional, cell-based. Particulars: Mus musculus, BaF3, 72 h. This is another data set of the same source.
Description: Antiproliferative activity against mouse BaF3 cells expressing Del19 assessed as cell viability measured after 72 hrs hrs by CellTiter Glo assay
Experiment [7] has as its system BaF3. As to the kind of experiment: cells. Type of experiment: functional, cell-based. Particulars: Mus musculus, BaF3, 72 h. This is another data set of the same source.
In experiment [8] the test system is BaF3. Briefly: cells. Particulars: Mus musculus, BaF3, 72 h. The source holds these as a separate data set.
The subject of experiment [9] is BaF3. As to the kind of experiment: cells. Type of experiment: functional, cell-based. Particulars: Mus musculus, BaF3, 72 h. The source holds these as a separate data set.
In experiment [10] the test system is BaF3. Briefly: cells. Conditions: Mus musculus, BaF3, 72 h. This is another data set of the same source.
The test system of experiment [11] is BaF3. As to the kind of experiment: cells. Conditions: Mus musculus, BaF3, 72 h. The source holds these as a separate data set.
Experiment [12] concerns BaF3. As to the kind of experiment: cells. Particulars: Mus musculus, BaF3, 72 h. The source holds these as a separate data set.
Description: Antiproliferative activity against mouse BaF3 cells expressing EGFR WT assessed as cell viability measured after 72 hrs hrs by CellTiter Glo assay
Experiment [13] concerns BaF3. Briefly: cells. Conditions: Mus musculus, BaF3, 72 h. This is another data set of the same source.
Experiment [14] relates to BaF3. As to the kind of experiment: cells. Conditions: Mus musculus, BaF3, 72 h. This is another data set of the same source.
Experiment [15] relates to BaF3. As to the kind of experiment: cells. Conditions: Mus musculus, BaF3, 72 h. The source holds these as a separate data set.
Experiment [16] addresses T1, Mitogen-activated protein kinase 1 and 3 (ERK2 and ERK1) (Mus musculus) (UniProt P63085+Q63844). Type of experiment: cell-based. Particulars: BaF3, dose 10-1000 nM, time 8.0 hrs.
Experiment [17] has as its target RAC-alpha serine/threonine-protein kinase (Mus musculus) (UniProt P31750). The experiment is classed as cell-based. Particulars: BaF3, dose 10-1000 nM, time 8.0 hrs.
Experiment [18] shares this target. As to the kind of experiment: Inhibition of AKT phosphorylation in mouse BaF3 cells harboring L858R mutant assessed as […] phosphorylation at 10 to 1000 nM incubated for 8 hrs by Western blot analysis. Particulars: dose 10-1000 nM. The experiment is classed as cell-based.
For experiment [19] the target is unchanged. As to the kind of experiment: Inhibition of AKT phosphorylation in mouse BaF3 cells harboring Del19 mutant assessed as […] phosphorylation at 10 to 1000 nM incubated for 8 hrs by Western blot analysis. Type of experiment: cell-based. Conditions: dose 10-1000 nM.
In experiment [20] the target is T1, Mitogen-activated protein kinase 1 and 3 (ERK2 and ERK1) (Mus musculus). The experiment is classed as cell-based. Conditions: BaF3, dose 10-1000 nM, time 8.0 hrs. This is another data set of the same source.
Experiment [21] concerns Epidermal growth factor receptor (Homo sapiens), P04626+P00533+Q15303+P21860 [L858R]. Particulars: Mus musculus; BaF3; dose 10-1000 nM, time 8.0 hrs.
The target of experiment [22] is T1, Mitogen-activated protein kinase 1 and 3 (ERK2 and ERK1) (Mus musculus). Briefly: Inhibition of ERK1/2 phosphorylation in mouse BaF3 cells harboring L858R mutant assessed as ERK1/2 phosphorylation at 10 to 1000 nM incubated for 8 hrs by Western blot analysis. The experiment is classed as cell-based. Conditions: dose 10-1000 nM.
Experiment [23] shares this target. As to the kind of experiment: Inhibition of ERK1/2 phosphorylation in mouse BaF3 cells harboring Del19 mutant assessed as ERK1/2 phosphorylation at 10 to 1000 nM incubated for 8 hrs by Western blot analysis. Particulars: dose 10-1000 nM. Type of experiment: cell-based.
Experiment [24] deals with RAC-alpha serine/threonine-protein kinase (Mus musculus) (UniProt P31750). The experiment is classed as cell-based. Conditions: BaF3, dose 10-1000 nM, time 8.0 hrs. This is another data set of the same source.
Sequence of RAC-alpha serine/threonine-protein kinase (Mus musculus) (P31750 whole entry): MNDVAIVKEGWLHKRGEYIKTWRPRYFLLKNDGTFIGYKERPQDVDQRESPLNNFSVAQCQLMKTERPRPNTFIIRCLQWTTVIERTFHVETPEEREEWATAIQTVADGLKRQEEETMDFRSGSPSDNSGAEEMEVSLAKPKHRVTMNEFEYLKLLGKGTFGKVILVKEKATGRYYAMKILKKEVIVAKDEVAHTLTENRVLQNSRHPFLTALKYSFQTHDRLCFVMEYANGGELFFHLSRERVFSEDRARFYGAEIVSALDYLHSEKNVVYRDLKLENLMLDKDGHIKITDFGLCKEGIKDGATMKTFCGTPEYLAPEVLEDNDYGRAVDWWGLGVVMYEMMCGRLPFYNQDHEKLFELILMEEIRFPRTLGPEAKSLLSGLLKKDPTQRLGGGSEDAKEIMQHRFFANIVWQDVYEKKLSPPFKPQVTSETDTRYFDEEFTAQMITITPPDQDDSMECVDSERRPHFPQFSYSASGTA
For experiment [25], the target named is Epidermal growth factor receptor (Homo sapiens, UniProt P00533, L858R/T790M).

T1 sequence (P63085 whole entry, looked up): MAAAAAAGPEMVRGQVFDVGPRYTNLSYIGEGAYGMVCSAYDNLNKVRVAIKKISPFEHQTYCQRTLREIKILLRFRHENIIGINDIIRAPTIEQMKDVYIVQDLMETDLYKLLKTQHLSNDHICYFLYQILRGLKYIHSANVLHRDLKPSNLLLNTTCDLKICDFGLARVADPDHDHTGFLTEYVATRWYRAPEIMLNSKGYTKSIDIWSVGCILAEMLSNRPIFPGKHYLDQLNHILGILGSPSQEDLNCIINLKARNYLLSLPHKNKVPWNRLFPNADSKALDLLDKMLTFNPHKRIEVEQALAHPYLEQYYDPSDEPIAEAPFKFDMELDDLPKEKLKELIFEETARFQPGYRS
T1 sequence (Q63844 whole entry, looked up): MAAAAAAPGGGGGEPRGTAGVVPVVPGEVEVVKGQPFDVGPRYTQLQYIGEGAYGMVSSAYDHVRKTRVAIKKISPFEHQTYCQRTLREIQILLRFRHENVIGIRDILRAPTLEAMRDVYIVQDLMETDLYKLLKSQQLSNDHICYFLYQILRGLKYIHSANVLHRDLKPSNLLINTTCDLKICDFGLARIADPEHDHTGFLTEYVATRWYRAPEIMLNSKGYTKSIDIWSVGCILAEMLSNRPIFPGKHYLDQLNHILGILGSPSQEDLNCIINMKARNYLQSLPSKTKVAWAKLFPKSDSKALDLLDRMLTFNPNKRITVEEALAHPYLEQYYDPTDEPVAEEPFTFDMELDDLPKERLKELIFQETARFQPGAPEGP
Sequence of Epidermal growth factor receptor (Homo sapiens, UniProt P00533, L858R) (P00533 25-1210 L858R limits assumed): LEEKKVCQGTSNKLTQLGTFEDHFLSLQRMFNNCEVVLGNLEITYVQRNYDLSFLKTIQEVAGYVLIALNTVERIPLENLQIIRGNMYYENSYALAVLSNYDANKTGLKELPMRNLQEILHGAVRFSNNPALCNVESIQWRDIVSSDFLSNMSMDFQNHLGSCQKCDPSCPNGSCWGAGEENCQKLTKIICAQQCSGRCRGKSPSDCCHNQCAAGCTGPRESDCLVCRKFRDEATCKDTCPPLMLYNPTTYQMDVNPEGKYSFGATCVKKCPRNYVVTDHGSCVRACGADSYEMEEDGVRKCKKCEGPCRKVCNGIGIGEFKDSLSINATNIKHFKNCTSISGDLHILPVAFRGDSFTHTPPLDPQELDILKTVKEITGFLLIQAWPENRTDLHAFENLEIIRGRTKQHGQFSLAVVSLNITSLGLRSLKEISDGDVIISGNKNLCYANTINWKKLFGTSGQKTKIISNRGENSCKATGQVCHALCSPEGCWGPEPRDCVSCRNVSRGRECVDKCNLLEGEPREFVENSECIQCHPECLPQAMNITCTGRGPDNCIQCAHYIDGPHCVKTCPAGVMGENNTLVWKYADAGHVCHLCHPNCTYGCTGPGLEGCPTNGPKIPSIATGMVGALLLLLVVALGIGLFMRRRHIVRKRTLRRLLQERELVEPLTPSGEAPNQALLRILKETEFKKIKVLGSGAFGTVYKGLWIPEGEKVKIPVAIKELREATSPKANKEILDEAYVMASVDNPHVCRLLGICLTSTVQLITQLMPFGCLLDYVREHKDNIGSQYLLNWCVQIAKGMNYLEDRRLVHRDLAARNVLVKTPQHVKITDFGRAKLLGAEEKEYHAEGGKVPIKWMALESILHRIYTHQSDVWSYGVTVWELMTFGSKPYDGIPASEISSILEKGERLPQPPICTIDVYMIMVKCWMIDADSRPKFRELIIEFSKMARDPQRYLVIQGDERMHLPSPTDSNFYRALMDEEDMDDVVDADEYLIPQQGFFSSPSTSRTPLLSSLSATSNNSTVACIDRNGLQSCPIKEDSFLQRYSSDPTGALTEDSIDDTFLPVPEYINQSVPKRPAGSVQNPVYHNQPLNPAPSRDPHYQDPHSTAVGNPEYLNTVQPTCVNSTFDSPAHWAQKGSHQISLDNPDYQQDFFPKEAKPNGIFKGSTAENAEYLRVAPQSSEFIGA
Sequence of Epidermal growth factor receptor (Homo sapiens, UniProt P00533, EX19DEL) (P00533 whole entry, looked up, stated change not applied): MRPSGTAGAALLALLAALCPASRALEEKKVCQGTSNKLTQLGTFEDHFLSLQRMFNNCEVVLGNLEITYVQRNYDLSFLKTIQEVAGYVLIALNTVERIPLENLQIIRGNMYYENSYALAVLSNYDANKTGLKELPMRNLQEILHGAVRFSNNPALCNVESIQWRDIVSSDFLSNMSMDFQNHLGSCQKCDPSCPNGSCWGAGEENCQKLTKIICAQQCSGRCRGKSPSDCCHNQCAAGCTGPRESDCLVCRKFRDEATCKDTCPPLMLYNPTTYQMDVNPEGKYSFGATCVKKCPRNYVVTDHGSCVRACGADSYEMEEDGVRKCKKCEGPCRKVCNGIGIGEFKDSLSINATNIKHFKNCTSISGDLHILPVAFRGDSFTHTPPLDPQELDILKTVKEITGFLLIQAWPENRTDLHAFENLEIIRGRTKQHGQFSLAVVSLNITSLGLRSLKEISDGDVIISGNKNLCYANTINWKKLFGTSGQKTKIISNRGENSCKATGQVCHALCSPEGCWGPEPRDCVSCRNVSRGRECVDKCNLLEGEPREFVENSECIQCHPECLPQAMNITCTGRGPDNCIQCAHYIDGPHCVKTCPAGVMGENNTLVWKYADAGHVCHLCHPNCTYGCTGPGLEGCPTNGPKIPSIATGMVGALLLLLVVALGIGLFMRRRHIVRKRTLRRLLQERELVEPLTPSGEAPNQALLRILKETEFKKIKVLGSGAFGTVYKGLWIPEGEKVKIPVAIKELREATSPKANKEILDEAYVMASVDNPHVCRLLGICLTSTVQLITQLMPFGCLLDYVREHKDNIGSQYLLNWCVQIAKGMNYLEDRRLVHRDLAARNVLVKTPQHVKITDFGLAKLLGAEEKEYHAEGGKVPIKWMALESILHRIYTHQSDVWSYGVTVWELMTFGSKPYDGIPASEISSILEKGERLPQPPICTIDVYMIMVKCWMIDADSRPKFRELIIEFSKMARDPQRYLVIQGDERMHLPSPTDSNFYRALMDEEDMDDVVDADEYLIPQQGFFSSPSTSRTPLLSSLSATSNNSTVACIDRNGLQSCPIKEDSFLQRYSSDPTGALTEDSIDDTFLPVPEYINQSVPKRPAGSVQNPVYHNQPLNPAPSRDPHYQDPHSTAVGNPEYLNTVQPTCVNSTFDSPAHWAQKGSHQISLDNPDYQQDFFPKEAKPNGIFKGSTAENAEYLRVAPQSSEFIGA
Sequence of Epidermal growth factor receptor (Homo sapiens, UniProt P00533) (P00533 whole entry): as the sequence (P00533 whole entry, looked up, stated change not applied) above

In experiment [1], `COc1cc2ncnc3c2cc1OCCOCCOc1cccc(c1)N3` showed an IC50 of 33900 nM.

As for `COc1cc2ncnc3c2cc1OCCOCCOCCOc1cc(Cl)ccc1N3`, the figures for the IC50 in [1], in [2] and in [3] were 16.2 nM, 38.3 nM and above 100 µM, respectively.

The compound `COc1cc2ncnc3c2cc1OCCOCCOc1cc(Cl)cc(c1)N3` returned an IC50 in experiment [1] of 6300 nM.

In [1], `COc1cc2ncnc3c2cc1OCCOCCOc1c(Cl)cccc1N3` gave an IC50 of 509 nM.

In the case of `COc1cc2ncnc3c2cc1OCCCCCCOc1cccc(Cl)c1N3`, the IC50 was 56.8 nM in experiment [1], 275 nM in experiment [2] and above 100 µM in [3].

On to `COc1cc2ncnc3c2cc1OCCOCCOc1cc(ccc1Cl)N3`, for which the IC50 in [1] is 493 nM; in experiment [2] it was 1120 nM.

As to `Fc1cc2c(cc1Cl)Nc1ncnc3ccc(cc13)OCCOCCO2`, the IC50 in [4] was 5360 nM; in [1], 1030 nM; in [5] it was 2760 nM; in [6], 3100 nM.

As to `COc1cc2ncnc3c2cc1OCCCCCCOc1ccc(Cl)cc1N3`, the values for the IC50 in experiment [1], in experiment [2] and in experiment [3] were 19.6 nM, 739 nM and above 100 µM, respectively.

For the compound `COc1cc2ncnc3c2cc1OCCOCCOc1ccc(Cl)cc1N3`, the figures for the IC50 in [1], in experiment [2] and in experiment [3] were 24.9 nM, 128 nM and above 100 µM, respectively.

In the case of `C=CC(=O)Nc1cc(Nc2ncc(C(=O)OC(C)C)c(-c3cn(C)c4ccccc34)n2)c(OC)cc1N(C)CCN(C)C` [MOBOCERTINIB], the IC50 came out at 10.1 nM in experiment [7]; 1130 nM in experiment [8]; 9 nM in experiment [9]; 1.9 nM in experiment [4]; 1060 nM in [5]; 8.9 nM in [10]. Moreover, the IC50 in experiment [6] worked out at 5 nM; in experiment [11], 47.6 nM; in experiment [12], 8.3 nM; in [13], 2170 nM; in experiment [14], 3.81 µM; in experiment [15] it was 27.1 nM.

`COc1cc2ncnc3c2cc1OCCOCCOc1cc(Cl)ccc1N3`: the IC50 in [3] is above 100 µM.

`COc1cc2ncnc3c2cc1OCCOCCOCCOc1cc(F)c(Cl)cc1N3`: the IC50 in experiment [1] was 1.3 nM; in [2], 2.8 nM; in experiment [3], above 100 µM. The inhibition entry in experiment [16], in [17], in experiment [18], in experiment [19], in experiment [20] and in experiment [21] was “Active” each time. In addition, the inhibition entry in [22], in experiment [23] and in [24] was “Active” in each case.

`COc1cc2ncnc3c2cc1OCCOCCOCCOc1cccc(Cl)c1N3`: the IC50 in [1] was 42.9 nM; in experiment [2], 32.6 nM; in experiment [3], above 100 µM.

As for `COc1cc2ncnc3c2cc1OCCCCCCOc1ccccc1N3`, it took 491 nM to reach half-maximal inhibition in experiment [1] (IC50).

As for `COc1cc2ncnc3c2cc1OCCOCCOCCOc1ccc(Cl)cc1N3`, the values for the IC50 in experiment [1], in [2] and in experiment [3] were 0.3 nM, 0.7 nM and above 100 µM, respectively. The inhibition result in [16], in experiment [17], in [18], in [19], in experiment [20] and in [21] was “Active” in each case. For the same compound, the inhibition entry in experiment [22], in experiment [23] and in experiment [24] was “Active” throughout.

For `COc1cc2ncnc3c2cc1OCCOCCOCCOc1ccccc1N3`, the IC50 in experiment [1] is 1870 nM; in experiment [2] it was 87.6 nM; in experiment [3] it was above 100 µM.

Take `COc1cc2ncnc3c2cc1OCCCCCCOc1cc(Cl)ccc1N3`: the IC50 is 63500 nM in experiment [1], above 100000 nM in experiment [2] and above 100 µM in experiment [3].

Regarding `COc1cc2ncnc3c2cc1OCCCCCCOc1c(Cl)cccc1N3`, the half-inhibitory concentration (IC50) in [1] is 3030 nM; in [2] it was above 100000 nM.

Regarding `COc1cc2ncnc3c2cc1OCCOCCOc1ccccc1N3`, the concentration for half-maximal inhibition (IC50) in [1] was 155 nM; in experiment [25] it was 1680 nM; in [2], 685 nM; in experiment [3], above 100 µM.

As to `COc1cc2ncnc3c2cc1OCCCCCCOc1cc(F)c(Cl)cc1N3`, the IC50 in experiment [1] was 235 nM; in experiment [2], 655 nM; in experiment [3] it was above 100 µM.

In the case of `COc1cc2ncnc3c2cc1OCCOCCOc1ccc(Cl)c(c1)N3`, the IC50 in [1] was 70400 nM; in experiment [2], 19900 nM; in [3], above 100 µM.

Source of the values: ChEMBL document CHEMBL5150044, “Macrocyclization of Quinazoline-Based EGFR Inhibitors Leads to Exclusive Mutant Selectivity for EGFR L858R and Del19” (J Med Chem, 2022).
